Data reported in PMC9097457 (The Journal of Biological Chemistry, 2022).

How the values were obtained:
[1] = tested on: mitochondrial polymerase γ; conditions: cited from earlier work
[2] = molecular target: T1, deoxyguanosine kinase (dGK) (Rattus norvegicus, UniProt A0A0G2K478); assay: Tissue-specific phosphorylation of [3H]-dG, [3H]-dA and [3H]-ETV in isolated mitochondria; format: biochemical; conditions: 2 h; for dG converted to phosphorylated products: 1 μM
T1 sequence (A0A0G2K478 with tags, fused parts or gaps): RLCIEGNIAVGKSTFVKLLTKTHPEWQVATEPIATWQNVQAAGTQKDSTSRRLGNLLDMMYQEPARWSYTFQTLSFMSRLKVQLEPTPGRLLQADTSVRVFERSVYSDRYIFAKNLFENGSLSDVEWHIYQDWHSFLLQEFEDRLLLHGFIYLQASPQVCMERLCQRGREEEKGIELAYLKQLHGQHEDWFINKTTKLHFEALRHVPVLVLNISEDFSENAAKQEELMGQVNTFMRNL
Method: As noted in the Experimental procedures, these were added together to determine total phosphorylation.
(§1) To measure and compare phosphorylation and kinetics, a stable substrate concentration was necessary and EHNA (5 μM) ([50]) and I-H (2.0 μM) ([49]) were added to all mitochondrial incubations. […] The mitochondria were incubated in vitro for up to 2 h at 37 °C in a shaker bath. At the end of the incubation, reactions were terminated by addition of 10% TCA to an equal volume of incubation mixture (175 μl) and spun in a microcentrifuge to remove precipitates. The supernatant was neutralized with AG 11 A8 resin and filtered through a […] nylon syringe filter. The neutralized and filtered supernatants were analyzed by ultra high pressure liquid chromatography (UPLC). Radioactivity was determined from aliquots of each sample and processed through a Beckman Coulter multipurpose liquid scintillation counter (model 6500).
Extent of phosphorylation was measured and analyzed by UPLC (Agilent 1290) with a reverse-phase C18 column (Zorbax Eclipse Plus C18; 3.0 × 150 mm, 1.8 micron) coupled with an inline diode array to detect UV signal at 254 nm and to an inline liquid scintillation counter (β-Ram) to quantitate radioactivity.
(§2) The radioactivity in each of these peaks was quantitated and totaled to provide the total amount of radioactivity in the phosphorylated products for each labeled precursor. This total was divided by the specific radioactivity of the precursor and expressed as pmol/mg protein/hr. The Kms were calculated from Lineweaver–Burk plots 1/Vo=Km/Vmax[S]+1/Vmax

[3] = molecular target: T1, deoxyguanosine kinase (dGK); assay: Inhibition of [3H]-dA phosphorylation by competing deoxynucleosides in liver mitochondria; format: biochemical; conditions: IC50 values at 1 μM substrate
Method: as §1, §2

[4] = molecular target: T1, deoxyguanosine kinase (dGK); assay: Kinetic analysis of [3H]-dG and [3H]-ETV phosphorylation and cross inhibition in heart mitochondria; format: biochemical; conditions: absence of ETV, data of Figure 4
Method: as §1, §2

[5] = molecular target: T1, deoxyguanosine kinase (dGK); assay: Kinetic analysis of [3H]-dA phosphorylation in the presence of dG or ETV in liver mitochondria; format: biochemical; conditions: 0.12 μM inhibitor, 4 μM dA
Method: as §1

heart mitochondria = assay: Conversion of [3H]-dGMP to [3H]-dGTP in isolated heart mitochondria; format: biochemical, rat; conditions: 1 μM precursor
Method: Thus, we were interested in determining if the dGTP and dATP phosphorylation pathway in isolated mitochondria functioned similarly.
[^3H]-dGMP (1 μM) or [^3H]-dAMP (1 μM) was incubated in heart mitochondria as described for Figure 1 for the times shown, and their conversion to [^3H]-dGTP and [^3H]-dATP, respectively, determined in the presence and absence of Ap5A ([…]), a competitive inhibitor of adenylate kinase. Data are shown as a box plot of two independent experiments. The thickness of the lines indicates the spread of the duplicates. Ap5A, P1,P5-di(adenosine-5) pentaphosphate pentasodium salt.
as §1

isolated rat heart [6] = assay: Phosphorylation of [3H]-ETV, [3H]-dG and [3H]-dA in the isolated perfused rat heart (Langendorff); conditions: 60-min perfusion
Method: The phosphorylation of [^3H]-dG, [^3H]-dA, and [^3H]-ETV in isolated mitochondria depends on the activity of the mitochondrial dGK. To determine the degree of phosphorylation in a whole tissue, which would include the activity of the cytosolic dCK, we utilized an isolated rat heart Langendorff retrograde perfusion model. The breakdown and phosphorylation of [^3H]-ETV, [^3H]-dG, and [^3H]-dA (0.5 μM each) was measured in the perfusates and in the hearts after 60 min of perfusion (Fig. 9, A and B). […] However, the heart was still able to take up and maintain a small amount of dG to generate 0.18 ± 0.05 pmol/mg wet heart of phosphorylated dG during the 60-min perfusion. […] Despite the loss of [^3H]-dA from the perfusate, the heart took up and maintained enough dA to produce 0.48 ± 0.08 pmol/mg wet heart of phosphorylated [^3H]-dA products at 60 min (Fig. 9B). […] Note that [^3H]-dG and [^3H]-dG catabolites equilibrate rapidly between the perfusion buffer and the heart, while the phosphorylated forms of [^3H]-dG are retained solely in the heart tissue.
Figure 9 [^3H]-ETV and [^3H]-dG phosphorylation in a perfused rat heart. Rat hearts were removed and perfused using the Langendorff method for 1 h as described in Experimental procedures with 0.5 μM [^3H]-ETV, 0.5 μM [^3H]-dG), or 0.5 μM [^3H]-dA. […] A, the amount of exogenous [^3H]-parent compound in the perfusate as a function of time, plotted as a box plot of three independent experiments. See text for details. B, the amount of phosphorylated [^3H]-ETV, [^3H]-dG, or [^3H]-dA in the heart tissue after 60 min of perfusion with additions as noted in (A). See text for details.
Rat hearts were perfused by Langendorff retrograde perfusion apparatus with [^3H]-dG, [^3H]-dA, or [^3H]-ETV for 60 min under the conditions previously described ([25], [26], [51]). Perfused hearts were snap frozen into wafers by clamping the heart in liquid nitrogen, and the frozen tissue wafers were stored in −80 °C until processed as previously described for ([24]) UPLC analysis.

isolated rat heart [7] = assay: Breakdown of the [3H]-parent compound in the perfusate of the isolated perfused rat heart; format: in vitro ADME; conditions: 0.5 μM [3H]-dG alone
Method: To determine the degree of phosphorylation in a whole tissue, which would include the activity of the cytosolic dCK, we utilized an isolated rat heart Langendorff retrograde perfusion model.
See text for details. […] See text for details.
Perfused hearts were snap frozen into wafers by clamping the heart in liquid nitrogen, and the frozen tissue wafers were stored in −80 °C until processed as previously described for ([24]) UPLC analysis.

[8] = molecular target: T2, purine nucleoside phosphorylase (PNP) (Rattus norvegicus, UniProt P85973)
T2 sequence (P85973 1-289): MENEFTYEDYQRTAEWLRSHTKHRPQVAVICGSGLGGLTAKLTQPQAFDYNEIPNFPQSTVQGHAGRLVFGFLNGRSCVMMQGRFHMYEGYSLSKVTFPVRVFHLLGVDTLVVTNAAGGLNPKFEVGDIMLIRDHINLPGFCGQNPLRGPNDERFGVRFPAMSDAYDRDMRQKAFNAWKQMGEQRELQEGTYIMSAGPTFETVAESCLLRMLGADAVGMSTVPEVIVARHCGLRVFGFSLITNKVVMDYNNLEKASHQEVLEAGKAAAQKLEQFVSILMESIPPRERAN
Method: To measure and compare phosphorylation and kinetics, a stable substrate concentration was necessary and EHNA (5 μM) ([50]) and I-H (2.0 μM) ([49]) were added to all mitochondrial incubations. […] The mitochondria were incubated in vitro for up to 2 h at 37 °C in a shaker bath. At the end of the incubation, reactions were terminated by addition of 10% TCA to an equal volume of incubation mixture (175 μl) and spun in a microcentrifuge to remove precipitates. The supernatant was neutralized with AG 11 A8 resin and filtered through a 0.2-μM nylon syringe filter. The neutralized and filtered supernatants were analyzed by ultra high pressure liquid chromatography (UPLC). Radioactivity was determined from aliquots of each sample and processed through a Beckman Coulter multipurpose liquid scintillation counter (model 6500).

In the case of `C=C1C(COP(=O)(O)OP(=O)(O)OP(=O)(O)O)C(O)CC1n1cnc2c(=O)[nH]c(N)nc21` (stereo not drawn) [ETV-triphosphate], the “recognition by mitochondrial polymerase γ” value [1] is given as “not recognized”.
For `Nc1nc2c(ncn2[C@H]2C[C@H](O)[C@@H](CO)O2)c(=O)[nH]1` [dG, deoxyguanosine], the “dG phosphorylated more readily than dA” value ([2]; 1 μM each, brain, heart, kidney, liver mitochondria) was 10 fold, the “dG converted to phosphorylated products” value ([2]; heart mitochondria) was 30 pmol/mg mitochondrial protein and the “dG converted to phosphorylated products” value ([2]; liver mitochondria) was 60 pmol/mg mitochondrial protein. For the same molecule, the “inhibition of dA phosphorylation more potent than ETV inhibition of dG phosphorylation” value [3] was 500 fold, the “rate of [3H]-dG phosphorylation to [3H]-dGTP, control” value [4] was 45.9 ± 1.8 pmol/mg protein/hr and the “inhibition of dA phosphorylation” value [5] was “nearly completely inhibited”. For the same molecule, the “conversion to [3H]-dGTP at the 30-min time point” value (heart mitochondria) was 22.4 ± 0.8 pmol/mg protein, the “phosphorylated [3H]-dG in heart” value (isolated rat heart [6]; 0.5 μM [3H]-dG + I-H 2 μM (legend: + I-H and EHNA)) was 0.57 ± 0.08 pmol/mg wet heart and the “phosphorylated product in heart” value (isolated rat heart [6]; 0.5 μM labeled compound alone) was 0.18 ± 0.05 pmol/mg wet heart. The “parent compound in the perfusate by 60 min” value (isolated rat heart [7]) was “nearly completely converted to catabolites”, the “parent compound in the perfusate within 3 min” value (isolated rat heart [7]) was 25 ± 8.8% and the “parent compound in the perfusate, initial level” value (isolated rat heart [7]) was 86.8 ± 0.7%. The “stability in heart mitochondria” value ([8]; heart mitochondria, initial studies) was “stable” and the “conversion of [3H]-dG to breakdown products” value ([8]; kidney mitochondria, 60 min, no inhibitor) was 22%.
